Experimental data from patent publication US5994366A, “Tetrahydroimidazo[2,1-A]isoquinoline derivatives” (Akzo Nobel NV, priority 1997, dated 1999).
Structures can show the parent of a compound that is named as a salt.

What was measured:
Format in all cases: biochemical
Conditions in all cases: in vitro
noradrenaline reuptake = experiment: noradrenaline (NUP) reuptake blockade
Procedure: (§1) Measurement of dopamine (DUP), serotonin (SUP) and noradrenaline NUP) reuptake blockade was carried out using the methods described in Neuropharmacology Vol. 27, No. 3, pp. 251-260, 1988 and results are presented in Table 1 below.

serotonin reuptake = experiment: serotonin (SUP) reuptake blockade
Procedure: as §1

dopamine reuptake = experiment: dopamine (DUP) reuptake blockade
Procedure: as §1

## Fc1ccc(C2CN3CCN=C3c3ccccc32)cc1 (racemic) [Example 2b, (rac)-6-(4-Fluorophenyl)-2,3,5,6-tetrahydroimidazo[2,1-a]isoquinoline]
Noradrenaline reuptake
  NUP (pKi): 7.65
Serotonin reuptake
  SUP (pKi): 7.5
Dopamine reuptake
  DUP (pKi): 6.5

## Clc1ccc(C2CN3CCN=C3c3ccccc32)cc1 (single isomer, unassigned; (+)) [Example 4, (+)-6-(4-Chlorophenyl)-2,3,5,6-tetrahydroimidazo[2,1-a]isoquinoline (E)-2-butenedioate (1:1) salt]
Noradrenaline reuptake
  NUP (pKi): 8.15
Serotonin reuptake
  SUP (pKi): 7.0
Dopamine reuptake
  DUP (pKi): 7.2

## Fc1ccc(C2CN3CCN=C3c3ccccc32)cc1 (single isomer, unassigned; (+)) [Example 7, (+)-6-(4-Fluorophenyl)-2,3,5,6-tetrahydroimidazo[2,1-a]isoquinoline (E)-2-butenedioate (1:1) salt]
Noradrenaline reuptake
  NUP (pKi): 7.75
Serotonin reuptake
  SUP (pKi): 6.25
Dopamine reuptake
  DUP (pKi): 6.45

## Clc1ccc(C2CN3CCN=C3c3ccccc32)cc1 (single isomer, unassigned; (-)) [Example 3, (-)-6-(4-chlorophenyl)-2,3,5,6-tetrahydroimidazo[2,1-a]isoquinoline (E)-2-butenedioate (1:1) salt]
Noradrenaline reuptake
  NUP (pKi): 8.1
Serotonin reuptake
  SUP (pKi): 7.3
Dopamine reuptake
  DUP (pKi): 7.15

## Cc1ccc(C2CN3CCN=C3c3ccccc32)cc1 (racemic) [Example 2c, (rac)-2,3,5,6-Tetrahydro-6-(4-methylphenyl)imidazo[2,1-a]isoguinoline (Z)-2-butenedioate (1:1) salt]
Noradrenaline reuptake
  NUP (pKi): 7.75
Serotonin reuptake
  SUP (pKi): 6.9
Dopamine reuptake
  DUP (pKi): 7.05

## Cl.Clc1ccc(C2CN3CCN=C3c3ccccc32)cc1 (racemic) [Example 2a, (rac)6-(4-chlorophenyl)-2,3,5,6-tetrahydroimidazo[2,1-a]isoquinoline hydrochloride]
Noradrenaline reuptake
  NUP (pKi): 7.9
Serotonin reuptake
  SUP (pKi): 7.4
Dopamine reuptake
  DUP (pKi): 7.15

## Fc1ccc(C2CN3CCN=C3c3ccccc32)cc1 (single isomer, unassigned; (-)) [Example 6, (-)-6-(4-fluorophenyl)-2,3,5,6-tetrahydroimidazo[2,1-a]isoquinoline (E)-2-butenedioate (1:1) salt]
Noradrenaline reuptake
  NUP (pKi): 7.5
Serotonin reuptake
  SUP (pKi): 7.9
Dopamine reuptake
  DUP (pKi): 6.6
